Test results reported in patent US9708247B2, “Modulators of the eIF2alpha pathway” (The Regents of the University of California, priority 2013, dated 2017).

Each compound was assayed on ATF4 luciferase reporter (assay: ATF4 luciferase reporter assay (Cell-luc) in HEK293T cells). Conditions: ATF4-luciferase reporter.
Type: cell-based, human
From the text: FIGS. 1A-1C. […]
To identify inhibitors of PERK signaling, we engineered a reporter that allows monitoring of PERK activation in living cells. To this end, we constructed a retroviral vector containing the open-reading frame of firefly luciferase fused to the 5′UTR of ATF4 mRNA (FIG. 1A), which contains two short open-reading frames (uORFs) that control ATF4 translation in a stress-dependent manner. After infection, we established a HEK293T cell line harboring the stably integrated reporter. […] This format was used to screen 106,281 compounds covering a wide chemical space. We identified 460 hits (0.43%) (FIG. 1C), which were further validated in an 8-point dose-response assay using the same reporter. We further triaged the compounds by discarding inhibitors that also affected the IRE1 branch of the UPR using an XBP1-luciferase splicing reporter. […] We next used an orthogonal secondary screen that employed a different reporter (bi-cistronic ATF4-dGFPIRES-mCherry) stably integrated into a different cell line (U20S cells). The read-out of this latter screen was microscopy-based, which allowed us to simultaneously assess acute toxicity by cell counting, further reducing the number of viable hits to 77. As a tertiary screen, we tested compounds for their ability to inhibit ER stress-elicited induction of endogenous ATF4 by Western blot analysis. Twenty-eight compounds passed this test and were analyzed further.
ATF4 reporters were constructed by fusing the human full-length ATF4 5′-UTR (NCBI Accession BC022088.2) in front of the firefly luciferase (FLuc) or a destabilized eGFP (dEGFP) coding sequences lacking the initiator methionine.
The ATF4-FLuc reporter was generated by cloning a PCR-product containing the ATF4 full-length 5′-UTR (from +1 position a the transcription start site down to one nucleotide after the terminator codon of the second uORF) flanked by KpnI/XhoI and BglII sites at the 5′ and 3′ ends, respectively, into the KpnI-BglII sites of pCAX-F-XBP1-Luc. The resulting construct, pCAX-ATF4-FLuc, was then digested with BamHI, blunted with T4 DNA polymerase, and then digested with XhoI. The resulting fragment was then subcloned into the retroviral expression vector pLPCX (Clontech) after digesting it with HindIII, blunting with T4 DNA polymerase and then digesting with XhoI to generate pLPCX-ATF4-FLuc (DAA-312). DAA-312 was used to produce recombinant retroviruses using standard methods and the resulting viral supernatant was used to transduce HEK293T cells, which were then subsequently selected with puromycin to generate a stable cell line employed in the primary screen.
HEK293T cells carrying the ATF4 luciferase reporter were plated on poly-lysine coated 384 well plates (Greiner) at 30,000 cells per well. […] Luminescence was measured using One Glo (Promega) as specified by the manufacturer. […] Thus, these were considered unique to the PERK branch and were cherry-picked for further analysis.

Row | Compound | potency of trans-ISRIB relative to cis-ISRIB [fold]
1 | O=C(COc1ccc(Cl)cc1)N[C@H]1CC[C@H](NC(=O)COc2ccc(Cl)cc2)CC1 [Trans-ISRIB, 2-(4-Chlorophenoxy)-N-[(1r, 4r)-4-[2-(4-chlorophenoxy)acetamido]cyclohexyl]acetamide] | 100

Same assay, conditions: ATF4 luciferase reporter, HEK293T cells; read-out: IC50 (nM) Cell-luc

Row | IC50 [nM] | Compound
2 | 2700 | C#CCN(C(=O)COc1ccc(Cl)cc1)[C@H]1CC[C@H](NC(=O)COc2ccc(Cl)cc2)CC1 [755854.1]
3 | 440 | C#CCN(C(=O)COc1ccc(Cl)cc1)[C@H]1CC[C@H](NC(=O)COc2ccc(Cl)cc2)CC1 [755854.2]
4 | 100 | C#CCN(C(=O)COc1ccc(Cl)cc1)[C@H]1CC[C@H](NC(=O)COc2ccc(Cl)cc2)CC1 [755854.3]
5 | 64 | C#CCN(C(=O)COc1ccc(Cl)cc1)[C@H]1CC[C@H](NC(=O)COc2ccc(Cl)cc2)CC1 [755854.4]
6 | 60 | N=C(COc1ccc(Cl)cc1)N[C@H]1CC[C@H](NC(=O)COc2ccc(Cl)cc2)CC1 [757264-L3]
7 | 100 | N=C(COc1ccc(Cl)cc1)N[C@H]1CC[C@H](NC(=O)COc2ccc(Cl)cc2)CC1 [757264.1]
8 | 34 | N=C(COc1ccc(Cl)cc1)N[C@H]1CC[C@H](NC(=O)COc2ccc(Cl)cc2)CC1 [757264.2]

Same assay, conditions: Homo sapiens, HEK-293T, ATF4 luciferase reporter, HEK293T cells; read-out: IC50 (nM) Cell-luc

Row | IC50 [nM] | Compound
9 | 3 | O=C(COc1ccc(Cl)cc1)N[C@H]1CC[C@H](NC(=O)COc2ccc(Cl)cc2)CC1 [750213.2]
10 | 53 | O=C(COc1ccc(Cl)cc1)Nc1ccc(NC(=O)COc2ccc(Cl)cc2)cc1 [compound 102509]
11 | 250 | COc1ccc(OCC(=O)N[C@H]2CC[C@H](NC(=O)COc3ccc(Cl)cc3)CC2)cc1 [compound 751591]
12 | > 10000 | O=C(COc1ccc(Cl)cc1)N[C@H]1CC[C@H](NC(=O)COc2ccc(OCc3ccccc3)cc2)CC1 [compound 751592]
13 | 384 | O=C(COc1ccccc1)N[C@H]1CC[C@H](NC(=O)COc2ccc(Cl)cc2)CC1 [compound 751593]
14 | 69 | O=C(COc1ccc(Cl)cc1)N[C@H]1CC[C@H](NC(=O)COc2ccc(Cl)cc2Cl)CC1 [compound 751594]
15 | > 10000 | Cc1ccc(CC(=O)N[C@H]2CC[C@H](NC(=O)COc3ccc(Cl)cc3)CC2)cc1 [compound 751595]
16 | > 10000 | O=C(COc1ccc(Cl)cc1)N[C@H]1CC[C@H](NC(=O)c2ccc(Cl)cc2)CC1 [compound 751596]
17 | > 10000 | O=C(COc1ccc(O)cc1)N[C@H]1CC[C@H](NC(=O)COc2ccc(Cl)cc2)CC1 [compound 751597]
18 | > 10000 | COc1ccc(OCC(=O)N[C@H]2CC[C@H](NC(=O)COc3ccc(OC)cc3)CC2)cc1 [compound 754123]
19 | > 10000 | O=C(COc1ccc(Cl)cc1)N[C@H]1CC[C@@H](NC(=O)COc2ccc(Cl)cc2Cl)CC1 [compound 754124]
20 | > 10000 | O=C(CCc1ccc(Cl)cc1)N[C@H]1CC[C@H](NC(=O)CCc2ccc(Cl)cc2)CC1 [compound 754125]
21 | 327 | Cc1ccc(OCC(=O)N[C@H]2CC[C@H](NC(=O)COc3ccc(C)cc3)CC2)cc1 [compound 754126]
22 | 13 | O=C(COc1ccc(C(F)(F)F)cc1)N[C@H]1CC[C@H](NC(=O)COc2ccc(C(F)(F)F)cc2)CC1 [compound 754127]
23 | 95 | Cc1ccc(OCC(=O)N[C@H]2CC[C@H](NC(=O)COc3ccc(Cl)cc3)CC2)cc1 [compound 754128]
24 | 142 | O=C(COc1ccc(Cl)cc1)N[C@H]1C[C@H](NC(=O)COc2ccc(Cl)cc2)C1 [compound 755855]
25 | 1000 | O=C(COc1ccc(Cl)cc1)N[C@H]1C[C@@H](NC(=O)COc2ccc(Cl)cc2)C1 [compound 755856]
26 | > 10000 | N#Cc1ccc(OCC(=O)N[C@H]2CC[C@H](NC(=O)COc3ccc(C#N)cc3)CC2)cc1 [compound 757095]

Same assay, conditions: cultured HEK293T cells; 2 μg/ml tunicamycin, 7 h; synthesized isomers; read-out: IC50, inhibition of the ATF4-luciferase reporter

Row | Compound | IC50 [nM]
27 | O=C(COc1ccc(Cl)cc1)N[C@H]1CC[C@H](NC(=O)COc2ccc(Cl)cc2)CC1 [Trans-ISRIB, 2-(4-Chlorophenoxy)-N-[(1r, 4r)-4-[2-(4-chlorophenoxy)acetamido]cyclohexyl]acetamide] | 5
28 | O=C(COc1ccc(Cl)cc1)N[C@H]1CC[C@@H](NC(=O)COc2ccc(Cl)cc2)CC1 [cis-ISRIB, 2-(4-chlorophenoxy)-N-[(1s, 4s)-4-[2-(4-chlorophenoxy)acetamido]cyclohexyl]acetamide] | 600
